Assay results published in patent US20150291625A1 (PFIZER INC., priority 2012, published 2015).
Where “and” joins values, the source holds several entries; their conditions need not be identical. Identical values can stand only once. Counter-ions that a name gives are not always drawn. Like-named read-outs stand apart in the source and are kept apart here.

Key:
D1 [1] = target: T1, D1 (Homo sapiens, UniProt P21728); test: Human D1 receptor binding assay ([3H]-SCH23390 competition)
D1 [2] = target: T1, D1; test: D1 cAMP HTRF assay (HEK293T/hD1#1 stable cell line); format: cell-based; parameters: expressed in transfected cells
In short: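 Agonist-mode HTRF cAMP assay in HEK293T/hD1#1 stable cells resuspended in PBS with 0.5 μM IBMX; compound exposure 30 min at room temperature, then cAMP-D2 and anti-cAMP-cryptate detection for 1 h. EC50 from raw ratio data or from cAMP levels interpolated on a standard curve; percent effect versus controls.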

[3] = Human D1 Receptor Binding, Ki (nM), Geometric mean of 2-4 determinations, a: >=5 determinations, d: single determination
[4] = read-out: Human D1 Receptor Binding, Ki (nM), Geometric mean of 2-4 determinations, a: >=5 determinations, d: single determination

T1 sequence (P21728 whole entry): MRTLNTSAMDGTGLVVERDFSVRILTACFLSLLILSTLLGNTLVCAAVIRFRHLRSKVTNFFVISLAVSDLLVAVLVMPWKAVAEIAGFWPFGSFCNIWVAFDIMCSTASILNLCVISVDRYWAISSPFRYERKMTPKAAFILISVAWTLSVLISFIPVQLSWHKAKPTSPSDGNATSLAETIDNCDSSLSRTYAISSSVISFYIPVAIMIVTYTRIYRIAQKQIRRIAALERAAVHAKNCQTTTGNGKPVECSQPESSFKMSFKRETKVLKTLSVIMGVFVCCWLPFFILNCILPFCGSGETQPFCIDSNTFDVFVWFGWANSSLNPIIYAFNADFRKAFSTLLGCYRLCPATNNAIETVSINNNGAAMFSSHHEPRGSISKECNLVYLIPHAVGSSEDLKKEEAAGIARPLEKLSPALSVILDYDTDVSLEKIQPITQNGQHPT

Row | Compound | Ki (D1 [1]; [3]) | EC50 (D1 [2]) | Ki (D1 [1]; [4])
1 | Cc1cc(Oc2nccc3occc23)ccc1-c1c(C)c(O)nc2nccn12 [Example 133, 5-[4-(furo[3,2-c]pyridin-4-yloxy)-2-methylphenyl]-6-methylimidazo[1,2-a]pyrimidin-7-ol] | 31.5 nM | 172 nM | –
2 | Cc1cc(Oc2nccc3occc23)ccc1-c1nc(O)cnc1C [Example 136, 6-[4-(furo[3,2-c]pyridin-4-yloxy)-2-methylphenyl]-5-methylpyrazin-2-ol] | 225 nM | 2410 nM | –
3 | Cc1cc(Oc2nccc3occc23)ccc1-c1ccc(O)c2nccn12 [Example 137, 5-[4-(furo[3,2-c]pyridin-4-yloxy)-2-methylphenyl]imidazo[1,2-a]pyridin-8-ol] | 42 nM | 209 nM | –
4 | Cc1cnnc(C)c1-c1ccc(Oc2nccc3occc23)cc1F [Example 140, 4-[4-(3,5-dimethylpyridazin-4-yl)-3-fluorophenoxy]furo[3,2-c]pyridine] | 48 nM | 292 nM | –
5 | Cc1cc(Oc2nccc3occc23)ccc1-c1ccnnc1C [Example 145, 4-[3-methyl-4-(3-methylpyridazin-4-yl)phenoxy]furo[3,2-c]pyridine] | 110 nM | 1440 nM | –
6 | COc1nc(C)c(-c2ccc(Oc3nccc4occc34)cc2C)c(C)n1 [Example 149, 4-[4-(2-methoxy-4,6-dimethylpyrimidin-5-yl)-3-methylphenoxy]furo[3,2-c]pyridine] | 31.4 nM | 464 nM | –
7 | Cc1cnnc(C)c1-c1ccc(Oc2nccc3occc23)cc1 [Example 150, 4-[4-(3,5-dimethylpyridazin-4-yl)phenoxy]furo[3,2-c]pyridine] | 67 nM | 443 nM | –
8 | Cc1cc(Oc2nccc3occc23)ccc1-c1c(C)cnnc1N(C)C [Example 151, 4-[4-(furo[3,2-c]pyridin-4-yloxy)-2-methylphenyl]-N,N,5-trimethylpyridazin-3-amine, trifluoroacetate salt] | 101 nM | 1120 nM | –
9 | Cc1ccc2nccn2c1-c1ccc(Oc2nccc3occc23)cc1O [Example 153, 5-(furo[3,2-c]pyridin-4-yloxy)-2-(6-methylimidazo[1,2-a]pyridin-5-yl)phenol] | 5.99 nM | 51.8 nM | –
10 | Cc1cc(Oc2nccc3occc23)ccc1-c1cnncc1C [Example 154, 4-[3-methyl-4-(5-methylpyridazin-4-yl)phenoxy]furo[3,2-c]pyridine] | 402 nM | 2160 nM | –
11 | CCOc1nncc(C)c1-c1ccc(Oc2nccc3occc23)cc1C [Example 157, 4-[4-(3-ethoxy-5-methylpyridazin-4-yl)-3-methylphenoxy]furo[3,2-c]pyridine] | 354 nM | 3520 nM | –
12 | Cc1cc(Oc2nccc3occc23)ccc1-c1c(C)nn(C)c(=O)c1C [Example 159, 5-[4-(furo[3,2-c]pyridin-4-yloxy)-2-methylphenyl]-2,4,6-trimethylpyridazin-3(2H)-one] | 11.6 nM | 212 nM | –
13 | Cc1n[nH]c(=O)c(C)c1-c1ccc(Oc2nccc3occc23)cc1Cl [Example 160, 5-[2-chloro-4-(furo[3,2-c]pyridin-4-yloxy)phenyl]-4,6-dimethylpyridazin-3(2H)-one] | 5.24 nM | 13 nM | –
14 | Cc1ccc2nccn2c1-c1ccc(Oc2nccc3occc23)cc1 [Example 161, 4-[4-(6-methylimidazo[1,2-a]pyridin-5-yl)phenoxy]furo[3,2-c]pyridine] | – | 94.7 nM and 173 nM | 8.49 nM
15 | Cc1cc(Oc2nccc3occc23)cc(C)c1-c1c(C)ncc2nccn12 [Example 162] | 10.6 nM | 251 nM and 446 nM | –
16 | COc1cc(Oc2nccc3occc23)ccc1-c1cccc(=O)n1C [Example 166, 6-[4-(furo[3,2-c]pyridin-4-yloxy)-2-methoxyphenyl]-1-methylpyridin-2(1H)-one] | 22.9 nM | 310 nM | –
17 | COc1ccc2cnccc2c1-c1ccc(Oc2nccc3occc23)cc1 [Example 168, 5-[4-(furo[3,2-c]pyridin-4-yloxy)phenyl]-6-methoxyisoquinoline, trifluoroacetate salt] | 28.6 nM | 458 nM | –
18 | COc1cc(Oc2nccc3occc23)ccc1-c1c(C)cnnc1C [Example 169, 4-[4-(3,5-dimethylpyridazin-4-yl)-3-methoxyphenoxy]furo[3,2-c]pyridine] | 29.2 nM | 150 nM | –
19 | Clc1cc(Oc2nccc3occc23)ccc1-c1cncc2nccn12 [Example 170, 5-[2-chloro-4-(furo[3,2-c]pyridin-4-yloxy)phenyl]imidazo[1,2-a]pyrazine] | 30 nM | 657 nM | –
20 | COc1cnnc(C)c1-c1ccc(Oc2nccc3occc23)cc1C [Example 171, 4-[4-(5-methoxy-3-methylpyridazin-4-yl)-3-methylphenoxy]furo[3,2-c]pyridine] | 31.1 nM | 487 nM | –
21 | Cc1ncc2nccn2c1-c1ccc(Oc2nccc3occc23)cc1 [Example 172, 5-[4-(furo[3,2-c]pyridin-4-yloxy)phenyl]-6-methylimidazo[1,2-a]pyrazine] | 32.7 nM | 408 nM | –
22 | COc1cc(Oc2nccc3occc23)ccc1-c1c(C)ncc2nccn12 [Example 173, 5-[4-(furo[3,2-c]pyridin-4-yloxy)-2-methoxyphenyl]-6-methylimidazo[1,2-a]pyrazine] | 36.8 nM | 564 nM | –
23 | Cc1cc(Oc2nccc3occc23)ccc1-c1cccc2nccn12 [Example 174, 4-[4-(imidazo[1,2-a]pyridin-5-yl)-3-methylphenoxy]furo[3,2-c]pyridine] | – | 200 nM | 37.9 nM

Second part, the molecule after the results:

Row | Ki (D1 [1]; [3]) | EC50 (D1 [2]) | Ki (D1 [1]; [4]) | Compound
24 | 73 nM | 1050 nM | – | Cc1ncnc(C)c1-c1ccc(Oc2nccc3occc23)c(F)c1 [Example 130, 4-[4-(4,6-dimethylpyrimidin-5-yl)-2-fluorophenoxy]furo[3,2-c]pyridine]
25 | 135 nM | 1550 nM | – | Cc1ncnc(C)c1-c1ccc(Oc2nccc3occc23)c(F)c1C [Example 131, 4-[4-(4,6-dimethylpyrimidin-5-yl)-2-fluoro-3-methylphenoxy]furo[3,2-c]pyridine]
26 | 39.9 nM | 2260 nM | – | Cc1cc(Nc2nccc3occc23)ccc1-c1c(C)ncnc1C [Example 132, N-[4-(4,6-dimethylpyrimidin-5-yl)-3-methylphenyl]furo[3,2-c]pyridin-4-amine, formate salt]
27 | 119 nM | 287 nM | – | Cc1ncnc(C)c1-c1cc(F)c(Oc2nccc3occc23)cc1F [Example 139, 4-[4-(4,6-dimethylpyrimidin-5-yl)-2,5-difluorophenoxy]furo[3,2-c]pyridine]
28 | 69.9 nM | 298 nM | – | Cc1ncnc(C)c1-c1ccc(Oc2nccc3occc23)c(F)c1F [Example 141, 4-[4-(4,6-dimethylpyrimidin-5-yl)-2,3-difluorophenoxy]furo[3,2-c]pyridine]
29 | 246 nM | 3490 nM | – | Cc1ncnc(C)c1-c1ccc(Oc2nccc3occc23)c2cn(C)nc12 [Example 144, 4-{[7-(4,6-dimethylpyrimidin-5-yl)-2-methyl-2H-indazol-4-yl]oxy}furo[3,2-c]pyridine]
30 | 111 nM | 777 nM | – | Cc1ncnc(C)c1-c1ccc(Oc2nccc3occc23)c2cnn(C)c12 [Example 148, 4-{[7-(4,6-dimethylpyrimidin-5-yl)-1-methyl-1H-indazol-4-yl]oxy}furo[3,2-c]pyridine, trifluoroacetate salt]
31 | 79.5 nM | 565 nM | – | Cc1cc(Oc2nccc3occc23)ccc1-c1c(C)nc(O)nc1C [Example 152, 5-[4-(furo[3,2-c]pyridin-4-yloxy)-2-methylphenyl]-4,6-dimethylpyrimidin-2-ol]
32 | 138 nM | 1010 nM | – | Cc1cc(Sc2nccc3occc23)ccc1-c1c(C)ncnc1C [Example 155, 4-{[4-(4,6-dimethylpyrimidin-5-yl)-3-methylphenyl]sulfanyl}furo[3,2-c]pyridine]
33 | 1820 nM | > 15100 nM | – | Cc1ncnc(C)c1-c1ccc(Oc2nccc3occc23)c2c1OCO2 [Example 156, 4-{[7-(4,6-dimethylpyrimidin-5-yl)-1,3-benzodioxol-4-yl]oxy}furo[3,2-c]pyridine]
34 | 280 nM | 2690 nM | – | Cc1ncnc(C)c1-c1ccc(Oc2nccc3occc23)c2cccnc12 [Example 158, 8-(4,6-dimethylpyrimidin-5-yl)-5-(furo[3,2-c]pyridin-4-yloxy)quinoline]
35 | 12.8 nM | 389 nM | – | Cc1cc(Oc2nccc3occc23)ccc1-c1c(C)ncnc1N1CC[C@H](F)C1 [Example 163, 4-(4-{4-[(3S)-3-fluoropyrrolidin-1-yl]-6-methylpyrimidin-5-yl}-3-methylphenoxy)furo[3,2-c]pyridine, formate salt]
36 | 15.2 nM | 625 nM | – | Cc1cc(Oc2nccc3occc23)ccc1-c1c(C)ncnc1N1Cc2cnn(C)c2C1 [Example 164, 4-{3-methyl-4-[4-methyl-6-(1-methyl-4,6-dihydropyrrolo[3,4-c]pyrazol-5(1H)-yl)pyrimidin-5-yl]phenoxy}furo[3,2-c]pyridine, formate salt]
37 | 15.6 nM | 182 nM | – | Cc1cc(Oc2nccc3occc23)ccc1-c1c(C)ncnc1N(C)C [Example 165, 5-[4-(furo[3,2-c]pyridin-4-yloxy)-2-methylphenyl]-N,N,6-trimethylpyrimidin-4-amine, trifluoroacetate salt]
38 | 24.4 nM | 354 nM | – | Cc1cc(Oc2nccc3occc23)ccc1-c1c(C)ncnc1N1CC=CC1 [Example 167, 4-{4-[4-(2,5-dihydro-1H-pyrrol-1-yl)-6-methylpyrimidin-5-yl]-3-methylphenoxy}furo[3,2-c]pyridine, trifluoroacetate salt]
